{"source": "patent US11952349B2", "about": "“Anti-cancer nuclear hormone receptor-targeting compounds” (Nuvation Bio Inc., priority 2019, dated 2024)", "key": {"Human recombinant PARP1": {"molecular_target": "Human recombinant PARP1 (Homo sapiens, UniProt P09874)", "sequence (P09874 whole entry)": "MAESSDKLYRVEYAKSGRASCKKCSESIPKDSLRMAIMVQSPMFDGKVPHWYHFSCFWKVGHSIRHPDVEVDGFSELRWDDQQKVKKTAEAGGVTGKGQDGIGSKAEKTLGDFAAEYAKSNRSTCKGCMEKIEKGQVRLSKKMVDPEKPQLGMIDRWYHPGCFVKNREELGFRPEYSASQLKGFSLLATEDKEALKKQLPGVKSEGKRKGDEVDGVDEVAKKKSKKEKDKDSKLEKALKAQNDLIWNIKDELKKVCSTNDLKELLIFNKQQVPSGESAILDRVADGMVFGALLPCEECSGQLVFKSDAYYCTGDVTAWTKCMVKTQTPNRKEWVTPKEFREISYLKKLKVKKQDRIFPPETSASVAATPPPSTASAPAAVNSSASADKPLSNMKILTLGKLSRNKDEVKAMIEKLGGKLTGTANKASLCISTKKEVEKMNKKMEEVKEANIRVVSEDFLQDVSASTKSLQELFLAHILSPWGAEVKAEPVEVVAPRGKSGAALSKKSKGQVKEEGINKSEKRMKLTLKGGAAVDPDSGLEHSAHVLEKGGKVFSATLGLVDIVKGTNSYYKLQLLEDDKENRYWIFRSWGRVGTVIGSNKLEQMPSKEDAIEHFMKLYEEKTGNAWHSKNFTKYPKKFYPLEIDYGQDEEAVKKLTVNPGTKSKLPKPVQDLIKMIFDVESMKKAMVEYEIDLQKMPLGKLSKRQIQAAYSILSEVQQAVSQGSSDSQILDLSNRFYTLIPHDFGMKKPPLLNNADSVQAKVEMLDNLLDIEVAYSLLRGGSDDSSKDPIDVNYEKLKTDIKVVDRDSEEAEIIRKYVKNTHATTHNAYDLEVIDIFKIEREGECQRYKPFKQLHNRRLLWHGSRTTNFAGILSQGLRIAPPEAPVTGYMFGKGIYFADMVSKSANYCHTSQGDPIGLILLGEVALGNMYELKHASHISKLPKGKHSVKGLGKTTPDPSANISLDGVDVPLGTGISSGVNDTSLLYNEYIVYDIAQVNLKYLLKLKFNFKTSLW", "experiment": "RBC HotSpot PARP1 assay (radioisotope-based filter binding)", "assay_type": "biochemical", "description": "(§1) The following methods are for evaluating the in vitro biology properties of the test articles. • a. RBC HotSpot Poly(ADP-ribose) Polymerases 1 (PARP1) and Poly(ADP-ribose) Polymerases 2 (PARP2) Assays: The assay was conducted at Reaction Biology Corporation (RBC; Malvern, PA). The assay principle is radioisotope-based filter binding assay where incorporation of radioisotope-labeled NAD^+ into the substrate captured on filter is detected after washout free NAD^+. Data were analyzed using Excel and GraphPad Prism software for IC50 curve fits. Each assay was conducted with PJ34 as a positive control. PARP1 assay: Human recombinant PARP1 at a final concentration of 2.5 nM was combined with histone H4 (20 μM) and test articles at various concentrations in reaction buffer (50 mM Tris-HCL, pH 8.0, 50 mM NaCl, 10 mM MgCl2, 1 mM DTT, 1% DMSO, and 20 μg/mL activated DNA). The solution was inoculated for 20 min at room temperature and the reaction initiated by adding [adenylate-^32P]-Nicotinamide Adenine Dinucleotide, ^32P-NAD^+ at a final concentration of 10 μM. After incubation for 2 hrs at room temperature, the reaction mixture was filtered and washed with 0.75% phosphoric acid for radioactivity detection. • ii. PARP2 assay: Human recombinant PARP2 at a final concentration of 2.5 nM was combined with histone H3 (20 μM) and test articles at various concentrations in reaction buffer (50 mM Tris-HCL, pH 8.0, 50 mM NaCl, 10 mM MgCl2, 1 mM DTT, 1% DMSO, and 20 μg/mL activated DNA). The solution was inoculated for 20 min at room temperature and the reaction was initiated by adding [adenylate-^32P]-Nicotinamide Adenine Dinucleotide, ^32P-NAD^+ at a final concentration of 10 μM. After incubation for 2 hrs at room temperature, the reaction mixture was filtered and washed with 0.75% phosphoric acid for radioactivity detection. • b. AR binding assay: AR in LNCaP cytosol was used for determining the binding affinity of test articles and the reference compound—progesterone (Sigma, Cat: E2785, St. Louis, MO). IC50 s were determined using 8 concentrations/compound. Cytosol is plated at 200 μg/well (100 μL) into a 96-well conical polypropylene plate (Agilent, Cat: 5042-1385, Santa Clara, CA) and mixed with 3 μL of test compound. After adding 100 μL of ^3H-methyltrienolone (PerkinElmer, Cat: NET590250UC, San Jose, CA), the plate was sealed and shaken at 300 rpm at 4° C. for 24 hours. Post incubation, 100 μL of radioligand adsorption buffer containing 10 mM Tris-HCl, pH 7.4; 1.5 mM EDTA; 1 mM DTT; 0.25% charcoal; 0.0025% dextran was added to individual wells. Plate was shaken for 15 min at 4° C. followed by centrifugation at 3000 rpm for 30 min at 4° C. 150 μL of supernatant is transferred into scint-tube (PerkinElmer, Cat: 6000192) and mixed with 2 mL of Ultima Gold Cocktail (PerkinElmer, Cat: 6013329). Radioactivity is counted using a TriCarb 2910 TR scintillation counter (PerkinElmer). Inhibition of the radioactivity by test articles was calculated using the equation below: % Inhibition=(1−(Assay well−Average_LC)/(Average_HC−Average_LC))×100%. • IC50 values (Table 6) were calculated and graphed using the model “log(inhibitor) vs. response—Variable slope” included in GraphPad Prism 5 (San Diego, CA). The Ki values were further calculated using the equation below where [L] is the radioligand concentration (1 nM) used in this study. Kd value was 0.332 nM. Ki=IC50/(1+[L]/Kd) • c. AR transactivation: Human AR cloned into a CMV vector backbone is used for the transactivation study. HEK-293 cells are plated at 80,000 cells per well of a 24 well plate in DME+5% csFBS. Twenty four hours later, the cells are transfected using Lipofectamine (Invitrogen, Carlsbad, CA) with 0.25 μg GRE-LUC, 0.01 μg CMV-LUC (renilla luciferase) and 25 ng of the AR in OPTIMEM medium. The cells are treated 24 hrs after transfection with various ligands (10^−12 to 10^−5 M final concentrations) and luciferase assay performed 48 hours after transfection. […]"}, "Human recombinant PARP2": {"molecular_target": "Human recombinant PARP2 (Homo sapiens, UniProt Q9UGN5)", "sequence (Q9UGN5 whole entry)": "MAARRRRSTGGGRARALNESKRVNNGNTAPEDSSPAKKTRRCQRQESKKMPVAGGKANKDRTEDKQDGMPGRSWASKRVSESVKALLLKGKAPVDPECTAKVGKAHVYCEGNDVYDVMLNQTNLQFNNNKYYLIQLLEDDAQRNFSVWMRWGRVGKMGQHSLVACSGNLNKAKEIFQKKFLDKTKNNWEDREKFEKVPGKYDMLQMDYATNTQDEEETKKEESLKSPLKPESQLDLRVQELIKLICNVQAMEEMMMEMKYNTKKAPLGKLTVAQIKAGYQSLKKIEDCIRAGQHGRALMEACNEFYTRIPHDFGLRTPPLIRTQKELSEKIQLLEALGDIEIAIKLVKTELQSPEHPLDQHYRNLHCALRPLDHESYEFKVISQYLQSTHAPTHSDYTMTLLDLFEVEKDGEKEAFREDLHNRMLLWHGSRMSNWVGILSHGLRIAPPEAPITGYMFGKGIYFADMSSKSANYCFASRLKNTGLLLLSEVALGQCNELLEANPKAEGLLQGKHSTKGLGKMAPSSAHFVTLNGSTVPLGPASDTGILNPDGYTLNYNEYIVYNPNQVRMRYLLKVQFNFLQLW", "experiment": "RBC HotSpot PARP2 assay (radioisotope-based filter binding)", "assay_type": "biochemical", "description": "as §1"}, "LNCap cells": {"tested_on": "LNCap cells", "experiment": "Cell viability assay (CellTiterGlo, 6 days) LNCap", "assay_type": "cell-based", "conditions": "Homo sapiens, 144 h", "description": "(§2) Cell viability assay: LNCap, 22Rv1, and T47D cells were seeded at a density of 1500-2000 cells/well in 96 well plates, and a ‘T0’ (timepoint 0) was included along with the assay plate. The plates were then incubated at 37° C., 5% CO2 in a cell culture incubator overnight. On the next day, the ‘T0’ plate was assayed using CellTiterGlo (Promega, Inc) according to the manufacturer's instructions. The appropriate compounds were diluted in DMSO and added to the assay plate (final DMSO concentration of 0.2%) on the next day. The assay plates were incubated for 6 days at 37° C., 5% CO2. After the incubation period, the plates were assayed using CellTiterGlo (Promega, Inc) according to the manufacturer's instructions and luminescence was read on the EnVision plate reader. Inhibition the tested compounds was determined by the following formula: Inhibition rate (%)=(1−(RLU compound−RLU day0)/(RLU control−RLU day0))*100%. GraphPadPrism was used to analyze the data and determine absolute IC50 values."}, "22Rv1 cells": {"tested_on": "22Rv1 cells", "experiment": "Cell viability assay (CellTiterGlo, 6 days) 22Rv1", "assay_type": "cell-based", "conditions": "Homo sapiens, 22Rv1, 144 h, read-out: 22RV1", "description": "as §2"}, "[1]": {"molecular_target": "T1, AR, cytosol from LnCaP cells (Homo sapiens, UniProt P10275, T878A)", "T1 construct": "AR in LNCaP cytosol was used; endogenous in cells; host or cells: LNCaP cells (cytosol)", "T1 sequence (P10275 1-920 T878A)": "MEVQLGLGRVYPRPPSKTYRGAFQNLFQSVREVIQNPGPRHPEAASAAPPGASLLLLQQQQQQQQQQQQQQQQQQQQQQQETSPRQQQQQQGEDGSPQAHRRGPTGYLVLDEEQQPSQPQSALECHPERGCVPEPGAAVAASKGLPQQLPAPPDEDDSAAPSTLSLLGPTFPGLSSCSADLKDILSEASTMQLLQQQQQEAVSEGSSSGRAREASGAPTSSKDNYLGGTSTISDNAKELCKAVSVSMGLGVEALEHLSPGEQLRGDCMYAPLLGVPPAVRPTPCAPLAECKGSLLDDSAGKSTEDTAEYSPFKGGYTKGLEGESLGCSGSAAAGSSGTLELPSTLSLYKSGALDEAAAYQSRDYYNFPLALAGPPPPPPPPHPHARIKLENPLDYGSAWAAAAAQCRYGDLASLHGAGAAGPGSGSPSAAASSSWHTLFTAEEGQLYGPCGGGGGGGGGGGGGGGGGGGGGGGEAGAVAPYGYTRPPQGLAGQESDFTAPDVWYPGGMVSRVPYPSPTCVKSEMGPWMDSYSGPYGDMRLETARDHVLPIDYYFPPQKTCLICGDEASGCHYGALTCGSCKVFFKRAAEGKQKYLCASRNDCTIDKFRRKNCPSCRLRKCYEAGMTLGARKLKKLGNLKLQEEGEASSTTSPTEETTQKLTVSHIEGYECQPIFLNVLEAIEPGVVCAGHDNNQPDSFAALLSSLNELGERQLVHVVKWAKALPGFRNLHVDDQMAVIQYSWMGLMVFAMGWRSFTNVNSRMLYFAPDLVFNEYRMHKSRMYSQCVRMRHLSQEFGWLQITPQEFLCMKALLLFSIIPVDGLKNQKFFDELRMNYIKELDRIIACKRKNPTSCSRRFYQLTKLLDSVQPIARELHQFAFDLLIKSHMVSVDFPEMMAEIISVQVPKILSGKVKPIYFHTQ", "experiment": "AR binding assay, 3H-R1881 (Biological Example 2)", "description": "AR binding assay: To assess AR binding, test compound (top dose […], 4 fold serial dilution, 8 point dose response) and control (progesterone) were transferred to the assay plate. Cytosol from LnCaP cells was added to the plate, followed by addition of radiolabeled ^3H-R1881 at a final concentration of 1 nM. The plate was sealed, and the reaction was incubated at 300 rpm at 4° C. for 24 hrs. Radioligand absorption buffer (10 mM Tris-HCl, pH 7.4; 1.5 mM EDTA; 1 mM DTT; 0.25% charcoal; 0.0025% dextran) was then added to the plate, mixed, and incubated at 4° C. for 15 minutes. The plate was then centrifuged at 3000 rpm for 30 minutes at 4° C. The supernatant was transferred to the scint-tube and Tri-carb was used for scintillation counting. The data was analyzed using GraphPadPrism v5.0 and binding IC50 was determined as the concentration where 50% inhibition of radioligand binding was observed."}, "[2]": {"molecular_target": "T2, full-length androgen receptor (Homo sapiens, UniProt P10275)", "T2 construct": "HEK293 cells stably expressing the full-length androgen receptor; expressed in transfected cells", "T2 sequence (P10275 1-920)": "T1 sequence (P10275 1-920 T878A) with A878T", "experiment": "AR antagonism assay (HEK293, testosterone 1 nM, Steady-glo)", "assay_type": "cell-based", "description": "AR antagonism assay: To evaluate AR antagonist activity, test compound was added to the assay plate (top dose 10 μM, 3 fold serial dilution, 10 point dose response). HEK293 cells stably expressing the full-length androgen receptor were seeded at a density of 20000 cells/well in the assay plate. The assay plate was then incubated at room temperature for 10 minutes and at 37° C., 5% CO2 for 20 minutes. Testosterone was added to the assay plate at 1 nM final concentration and the assay plate was incubated at 37° C., 5% CO2 for 20 h. After the incubation period, Steady-glo was added to the assay plate and mixed at room temperature for 20 minutes on an orbital shaker, before reading out on the EnVision plate reader."}}, "note": "Where a chain is given by its changes, count along the chain named. Like-named read-outs stand apart in the source and are kept apart here.", "data": [{"smiles": "C[C@]12C[C@H](CCCCCC(=O)N3CCN(C(=O)c4cc(Cc5n[nH]c(=O)c6ccccc56)ccc4F)CC3)C3=C4CCC(=O)C=C4CC[C@H]3[C@@H]1CCC2=O", "note": "[Compound 1370, (8S,11S,13S,14S)-11-(6-(4-(2-fluoro-5-((4-oxo-3,4-dihydrophthalazin-1-yl)methyl)benzoyl)piperazin-1-yl)-6-oxohexyl)-13-methyl-7,8,11,12,13,14,15,16-octahydro-1H-cyclopenta[a]phenanthrene-3,17(2H,6H)-dione]", "values": [{"measurement": "IC50", "setting": "Human recombinant PARP1", "result": "< 1", "unit": "nM"}, {"measurement": "IC50", "setting": "Human recombinant PARP2", "result": "< 1", "unit": "nM"}, {"measurement": "IC50", "setting": "LNCap cells; Table 7", "result": "100 to 1000", "unit": "nM"}, {"measurement": "IC50", "setting": "22Rv1 cells", "result": "100 to 1000", "unit": "nM"}]}, {"smiles": "C[C@]12CC[C@H]3[C@@H](CCC4=CC(=O)CC[C@@]43C)[C@@H]1CC[C@@H]2C(=O)COCCCCCC(=O)NCCOCCOCC(=O)N1CCN(C(=O)c2cc(Cc3n[nH]c(=O)c4ccccc34)ccc2F)CC1", "note": "[Compound 1392]", "values": [{"measurement": "IC50", "setting": "Human recombinant PARP1; Table 9, read-out: PARP1", "result": "1 to 10", "unit": "nM"}, {"measurement": "IC50", "setting": "Human recombinant PARP2; Table 9, read-out: PARP2", "result": "< 1", "unit": "nM"}, {"measurement": "IC50", "setting": "LNCap cells; Table 8", "result": "1000 to 10000", "unit": "nM"}]}, {"smiles": "C[C@@H]1C[C@@]2(C)[C@@H](CC[C@@H]3[C@@H]2CC[C@]2(C)[C@@H](OCCCCCC(=O)N4CCN(C(=O)c5cc(Cc6n[nH]c(=O)c7ccccc67)ccc5F)CC4)CC[C@@H]32)CC1=O", "note": "[Compound 1402, 4-(4-fluoro-3-(4-(6-((2R,5S,8R,9S,10S,13S,14S,17S)-2,10,13-trimethyl-3-oxohexadecahydro-1H-cyclopenta[a]phenanthren-17-yloxy)hexanoyl)piperazine-1-carbonyl)benzyl)phthalazin-1(2H)-one]", "values": [{"measurement": "IC50", "setting": "Human recombinant PARP1; Table 9, read-out: PARP1", "result": "10 to 100", "unit": "nM"}, {"measurement": "IC50", "setting": "Human recombinant PARP2; Table 9, read-out: PARP2", "result": "1 to 10", "unit": "nM"}]}, {"smiles": "C[C@]12C=CC(=O)C[C@@H]1CC[C@@H]1[C@@H]2CC[C@]2(C)[C@@H](OCCCCCC(=O)N3CCN(C(=O)c4cc(Cc5n[nH]c(=O)c6ccccc56)ccc4F)CC3)CC[C@@H]12", "note": "[Compound 1410, 4-(3-(4-(6-((5S,8R,9S,10R,13S,14S,17S)-10,13-dimethyl-3-oxo-4,5,6,7,8,9, 10,11,12,13,14,15,16,17-tetradecahydro-3H-cyclopenta[a]phenanthren-17-yloxy)hexanoyl)piperazine-1-carbonyl)-4-fluorobenzyl)phthalazin-1(2H)-one]", "values": [{"measurement": "IC50", "setting": "[1]", "result": "10 to 100", "unit": "nM"}, {"measurement": "IC50", "setting": "[2]", "result": "100 to 1000", "unit": "nM"}, {"measurement": "IC50", "setting": "LNCap cells; Table 7", "result": "100 to 1000", "unit": "nM"}, {"measurement": "IC50", "setting": "22Rv1 cells; Table 7, cell viability, 6 days", "result": "100 to 1000", "unit": "nM"}]}]}
